Source: EP0697407B1, “Pyrimidinedione derivatives and antiarrhythmic compositions containing same” (MITSUI TOATSU CHEMICALS, Inc., priority 1994, dated 1996)

How the values were obtained:
[1] = Toxicity test (mortality rate 24 hours after administration); settings: mouse, in vivo, ip; 100 mg/kg (i.p.); twenty-four hours after administration; groups of three mice
Method: The test compounds were separately administered to mice (ddy strain, male). The administration of each compound was carried out intraperitoneally (i.p.) in a dose of 100 mg/kg. Twenty-four hours after the administration, the mortality rate of the mice (in groups of three) was examined.

[2] = system: right Purkinje fiber; assay: Effect on myocardial action potential duration (APD75) in isolated, perfused Purkinje fiber; format: cell-based, mongrel adult dog; settings: Canis lupus familiaris, 20 min, 20 minutes' incubation, field stimulus of 1 Hz, 37°C, read-out: T (%), percent prolongation of myocardial action potential duration (APD75); for activation at 1 µM: Dose 1 x 10^-6 M; for activation at 10 µM: Dose 10 x 10^-6 M; for activation at 100 µM: Dose 100 x 10^-6 M
Method: After a mongrel adult dog was anesthetized by the intravenous administration of 30 mg/kg of pentobarbital, the heart was excised therefrom. Then, the right Purkinje fiber was isolated in a nutrient fluid (i.e., Tyrode's solution). The isolated right Purkinje fiber was fixed in a constant-temperature bath (20 ml) at 37°C and perfused with Tyrode's solution. In this state, the myocardial action potential duration (APD75) was measured before and after the administration of each test compound. Then, the percent prolongation of myocardial action potential duration (T) after the administration of each test compound was calculated according to the following equation. T(%) =(B - A)/(A)x 100 [formula] where A: APD75 before administration B: APD75 after administration
APD75 was measured as follows: A field stimulus of 1 Hz was given to the right Purkinje fiber, and any change in action potential was detected by a glass microelectrode (10-20 MΩ) penetrated into a Purkinje fiber and monitored on an oscilloscope via an amplifier. The waveform on the oscilloscope was analyzed by means of a computer, and the duration beween the point of action potential generation adn the point of 75% repolarization was defined as APD75. The test compounds shown in Table 2 were separately added to the perfusing nutrient fluid, and after 20 minutes' incubation was recorded. This test was carried out according to the method of Sato et al. [S. Sato, K. Hashimoto; Arzneimittel Forschung, 34(1), 3a, 376-380(1984)].

[3] = system: ventricular muscle; assay: Effect on ventricular muscle refractory period (ERP) under ventricular pacing in anesthetized dog; format: in vivo, mongrel adult dog; settings: ventricular pacing at 400 msec
Method: According to the method described below, the refractory period was measured before and after the intravenous administration of each test compound, and the percent prolongation of refractory period (ERP) was calculated according to the following equation. ERP prolongation (%) =(W - Y)/(Y)x 100 [formula] where W: Refractory period after administration Y: Refractory period before administration
After a mongrel adult dog was anesthetized by the intravenous (i.v.) administration of 30 mg/kg of pentobarbital, the chest was opened on the right side. Then, a set of silver-silver chloride electrodes spaced by 3 mm was sewn on the right ventricle, and […] electrical stimuli (a duration of 4 msec, and a current intensity equal to twice the threshold) were given at an interval of 400 msec. Thereafter, a small amount of alcohol was injected into a sinus artery in order to destroy the pacemaker activity, and the ventricular refractory period (ERP) was measured under ventricular pacing. Specifically, one train comprised a series of stimuli having an interval of 400 msec, and the interval between trains was usually 400 msec. During measurement of the refractory period, this interval was shortened by decrements of 10 msec, and the interval between trains at which the response to the first stimulus of the train disappeared was regarded as the refractory period. These electrical stimuli were given by programmed stimulation using a heart stimulation apparatus (Diamedical Co., Ltd.; DHM-226-3).

[4] = Stability test in acid aqueous solution (Solution 1 of the Japanese Pharmacopoeia, pH 1.2), remaining compound by HPLC; format: physicochemical; settings: Solution 1 (pH 1.2); for Percentage of remaining compound: 0 hr; for Percentage of remaining compound / remaining at 3 h / remaining at 6 h: 2 mg/ml, stirred at 37°C, HPLC; for remaining at 3 h / remaining at 6 h: read-out: Percentage of remaining compound
Method: In order to confirm the stability of the compounds of the present invention in an acid aqueous solution, stability was tested on the fumarate of 6-[3-[N-[2-(4-methanesulfonylaminophenyl)ethyl]-N-propylamino]propyl]-1,3-dimethyl-2,4(1H,3H)pyrimidinedione (the compound obtained in Example 118; hereinafter referred to as compound A) which is a compound in accordance with the present invention, and 1,3-dimethyl-6-{2-[N-ethyl-3-phenylpropylamino]ethylamino}2,4(1H,3H)-pyrimidinedione (hereinafter referred to as compound B) which is a pyrimidinedione derivative having a substituted amino group at the 6-position of the pyrimidinedione ring as described in European Publication No. 454,498 A2 and was used for purposes of comparison.
Solution 1 (pH 1.2) described in the Japaense Pharmacopoeia was prepared by adding 7.0 ml of hydrochloric acid and water to 2.0 g of sodium chloride so as to give the final volume of 1,000 ml.
Compounds A and B were dissolved in Solution 1 at a concentration of 2 mg/ml and the resulting solutions were stirred at 37°C. Thus, changes with time in the percentages of the remaining compounds A and B were examined by HPLC.

**Q.** Which mortality at 24 h [1] does the source give for CCCN(CCCc1cc(=O)n(C)c(=O)n1C)CCOc1ccc(C(C)=O)cc1 [Example 47, 6-[3-[N-[2-(4-acetylphenoxy)ethyl]-N-propylamino]propyl]-1,3-dimethyl-2,4(1H,3H)pyrimidinedione] here?
**A.** 0%

**Q.** And the activation at 1 µM [2]?
**A.** 13%

**Q.** And the activation at 10 µM [2]?
**A.** 53%

**Q.** What about the activation at 100 µM [2] of the same compound?
**A.** 107%

**Q.** With CC(C)N(CCCc1cc(=O)n(C)c(=O)n1C)CCOc1ccc(-n2ccnc2)cc1 [Example 53, 6-[3-[N-[2-(4-(1H-imidazol-1-yl)phenoxy)ethyl]-N-isopropylamino]propyl]-1,3-dimethyl-2,4(1H,3H)pyrimidinedione] as the compound, how does the mortality at 24 h [1] read?
**A.** 0%

**Q.** What about the activation at 1 µM [2] of the same compound?
**A.** 8%

**Q.** And the activation at 10 µM [2]?
**A.** 24%

**Q.** What about the activation at 100 µM [2] of the same compound?
**A.** 49%

**Q.** Which mortality at 24 h [1] does the source give for CC(=O)c1cc(F)ccc1OCCN(C)CCCc1cc(=O)n(C)c(=O)n1C [Example 60, 6-[3-[N-[2-(2-acetyl-4-fluorophenoxy)ethyl]-N-methylamino]propyl]-1,3-dimethyl-2,4(1H,3H)pyrimidinedione] here?
**A.** 0%

**Q.** And the activation at 1 µM [2]?
**A.** 13%

**Q.** What about the activation at 10 µM [2] of the same compound?
**A.** 34%

**Q.** What about the activation at 100 µM [2] of the same compound?
**A.** 47%

**Q.** For CC(C)N(CCCc1cc(=O)n(C)c(=O)n1C)CCOc1ccc(NS(C)(=O)=O)cc1 [Example 116, 6-[3-[N-[2-(4-methanesulfonylaminophenoxy)ethyl]-N-isopropylamino]propyl]-1,3-dimethyl-2,4(1H,3H)pyrimidinedione], which “ERP (%), percent prolongation of refractory period” value (shortened to “ERP (%), percent prolongation”) ([3]; Dose 0.1 mg/kg i.v.) is on record?
**A.** 6.3%

**Q.** And the “ERP (%), percent prolongation” value ([3]; Dose 0.3 mg/kg i.v.)?
**A.** 12.5%

**Q.** And the “ERP (%), percent prolongation” value ([3]; Dose 1.0 mg/kg i.v.)?
**A.** 25.0%

**Q.** And the mortality at 24 h [1]?
**A.** 0%

**Q.** And the activation at 1 µM [2]?
**A.** 9%

**Q.** What about the activation at 10 µM [2] of the same compound?
**A.** 43%

**Q.** What about the activation at 100 µM [2] of the same compound?
**A.** 77%

**Q.** With CCCN(CCCc1cc(=O)n(C)c(=O)n1C)CCc1ccc(NS(C)(=O)=O)cc1 [Example 118, 6-[3-[N-[2-(4-methanesulfonylaminophenyl)ethyl]-N-propylamino]propyl]-1,3-dimethyl-2,4(1H,3H)pyrimidinedione] as the compound, how does the “ERP (%), percent prolongation” value ([3]; Dose 0.1 mg/kg i.v.) read?
**A.** 6.7%

**Q.** And the “ERP (%), percent prolongation” value ([3]; Dose 0.3 mg/kg i.v.)?
**A.** 20.0%

**Q.** What about the “ERP (%), percent prolongation” value ([3]; Dose 1.0 mg/kg i.v.) of the same compound?
**A.** 33.3%

**Q.** And the “Percentage of remaining compound” value [4]?
**A.** 100%

**Q.** And the remaining at 3 h ([4]; jp solution 1)?
**A.** 100%

**Q.** And the remaining at 6 h ([4]; jp solution 1)?
**A.** 99%

**Q.** And the mortality at 24 h [1]?
**A.** 0%

**Q.** And the activation at 1 µM [2]?
**A.** 16%

**Q.** What about the activation at 10 µM [2] of the same compound?
**A.** 54%

**Q.** What about the activation at 100 µM [2] of the same compound?
**A.** 81%

**Q.** Which results are given for CCCN(CCCc1cc(=O)n(C)c(=O)n1C)CCOc1ccc(NS(C)(=O)=O)cc1 [Example 121, 6-[3-[N-n-propyl-N-[2-(4-methanesulfonylaminophenoxy)ethyl]amino]propyl]-1,3-dimethyl-2,4(1H,3H)pyrimidinedione]?
**A.** ERP (%), percent prolongation of refractory period ([3]; Dose 0.1 mg/kg i.v.): 6.2%; ERP (%), percent prolongation of refractory period ([3]; Dose 0.3 mg/kg i.v.): 20.0%; ERP (%), percent prolongation of refractory period ([3]; Dose 1.0 mg/kg i.v.): 33.3%; mortality at 24 h [1]: 0%; activation at 1 µM [2]: 17%; activation at 10 µM [2]: 68%; activation at 100 µM [2]: 103%

**Q.** Which “ERP (%), percent prolongation” value ([3]; Dose 0.3 mg/kg i.v.) does the source give for CCCN(CCOc1ccc(NS(C)(=O)=O)cc1)CCc1cc(=O)n(C)c(=O)n1C [Example 126, 6-[2-[N-n-propyl-N-[2-(4-methanesulfonylaminophenoxy)ethyl]amino]ethyl]-1,3-dimethyl-2,4(1H,3H)pyrimidinedione] here?
**A.** 5.9%

**Q.** What about the “ERP (%), percent prolongation” value ([3]; Dose 1.0 mg/kg i.v.) of the same compound?
**A.** 11.8%

**Q.** What about the activation at 1 µM [2] of the same compound?
**A.** 14%

**Q.** What about the activation at 10 µM [2] of the same compound?
**A.** 46%

**Q.** And the activation at 100 µM [2]?
**A.** 85%

**Q.** For CCN(CCCc1ccccc1)CCNc1cc(=O)n(C)c(=O)n1C [compound B, 1,3-dimethyl-6-{2-[N-ethyl-3-phenylpropylamino]ethylamino}2,4(1H,3H)-pyrimidinedione], which “Percentage of remaining compound” value [4] is on record?
**A.** 100%

**Q.** What about the remaining at 3 h ([4]; jp solution 1) of the same compound?
**A.** 96%

**Q.** And the degraded at 6 h ([4]; jp solution 1, 6 hours, 37°C, read-out: decrease after 6 hours' heating)?
**A.** 7%

**Q.** What about the remaining at 6 h ([4]; jp solution 1) of the same compound?
**A.** 93%
